# Measured values: patent US11370794B2, “Toll-like receptor antagonist compounds and methods of use” (Dynavax Technologies Corporation, priority 2016, dated 2022)
# Read-outs that look alike come from different tables or passages of the source.
# Columns and labels:
# human TLR8 = molecular target: T1, human TLR8 (Homo sapiens, UniProt Q9NR97); assay: Inhibition of human TLR8 in human monocytes (TNF-alpha / IL-1 beta ELISA); assay type: cell-based; details: for IC50: human monocytes, agonist ORN8L 100 μg/mL, 24 hours
# T1 construct: endogenous in cells; host or cells: primary human monocytes (CD14 microbeads) from buffy coats of healthy donors
# T1 sequence (Q9NR97 27-1041): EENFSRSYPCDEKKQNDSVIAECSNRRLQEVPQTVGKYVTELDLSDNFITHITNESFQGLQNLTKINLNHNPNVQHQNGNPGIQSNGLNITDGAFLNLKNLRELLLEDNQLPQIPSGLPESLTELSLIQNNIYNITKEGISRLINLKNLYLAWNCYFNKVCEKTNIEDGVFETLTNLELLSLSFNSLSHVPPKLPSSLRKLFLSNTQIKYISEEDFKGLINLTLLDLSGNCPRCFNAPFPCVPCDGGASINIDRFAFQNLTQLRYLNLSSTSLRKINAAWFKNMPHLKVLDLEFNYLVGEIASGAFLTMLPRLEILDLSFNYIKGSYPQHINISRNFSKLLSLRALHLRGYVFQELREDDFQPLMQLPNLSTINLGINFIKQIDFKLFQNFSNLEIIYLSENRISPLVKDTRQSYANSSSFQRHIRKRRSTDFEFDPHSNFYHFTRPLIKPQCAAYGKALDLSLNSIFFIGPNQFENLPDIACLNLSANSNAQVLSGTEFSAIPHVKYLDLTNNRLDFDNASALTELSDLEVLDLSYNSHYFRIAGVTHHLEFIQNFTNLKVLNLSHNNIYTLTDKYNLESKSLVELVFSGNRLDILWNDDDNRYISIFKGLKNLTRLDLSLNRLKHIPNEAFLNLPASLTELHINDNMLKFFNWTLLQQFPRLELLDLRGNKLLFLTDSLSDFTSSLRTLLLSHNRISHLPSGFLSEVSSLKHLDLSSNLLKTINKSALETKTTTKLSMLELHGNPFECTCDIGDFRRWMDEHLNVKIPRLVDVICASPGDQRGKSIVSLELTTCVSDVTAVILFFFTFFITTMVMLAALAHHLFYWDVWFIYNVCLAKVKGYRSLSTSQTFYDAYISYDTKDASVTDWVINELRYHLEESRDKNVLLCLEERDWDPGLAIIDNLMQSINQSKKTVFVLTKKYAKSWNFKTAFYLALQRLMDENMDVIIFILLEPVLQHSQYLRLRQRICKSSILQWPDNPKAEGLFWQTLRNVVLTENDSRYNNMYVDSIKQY
# Summary of the method: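 Primary human monocytes from donor buffy coats (~200,000 cells/well) given serially diluted compound, then ORN8L RNA oligonucleotide agonist at 100 μg/mL final. After 24 h at 37 °C, supernatant TNF-alpha and/or IL-1 beta measured by ELISA; IC50 from the concentration-response of cytokine release.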
# human TLR9 = molecular target: T2, human TLR9 (Homo sapiens, UniProt Q9NR96); assay: Inhibition of human TLR9 in human B cells (IL-6 ELISA); assay type: cell-based; details: for IC50: human B cells, agonist 1018 ISS 1 μM, IL-6 readout, 48 hours, range about 0.01 to 10 μM, read-out: Human TLR9 IC50; for inhibits TLR9-dependent responses (in words): summary statement of the description
# T2 construct: endogenous in cells; host or cells: primary human B cells (CD19 microbeads) from buffy coats of healthy donors
# T2 sequence (Q9NR96 26-1032): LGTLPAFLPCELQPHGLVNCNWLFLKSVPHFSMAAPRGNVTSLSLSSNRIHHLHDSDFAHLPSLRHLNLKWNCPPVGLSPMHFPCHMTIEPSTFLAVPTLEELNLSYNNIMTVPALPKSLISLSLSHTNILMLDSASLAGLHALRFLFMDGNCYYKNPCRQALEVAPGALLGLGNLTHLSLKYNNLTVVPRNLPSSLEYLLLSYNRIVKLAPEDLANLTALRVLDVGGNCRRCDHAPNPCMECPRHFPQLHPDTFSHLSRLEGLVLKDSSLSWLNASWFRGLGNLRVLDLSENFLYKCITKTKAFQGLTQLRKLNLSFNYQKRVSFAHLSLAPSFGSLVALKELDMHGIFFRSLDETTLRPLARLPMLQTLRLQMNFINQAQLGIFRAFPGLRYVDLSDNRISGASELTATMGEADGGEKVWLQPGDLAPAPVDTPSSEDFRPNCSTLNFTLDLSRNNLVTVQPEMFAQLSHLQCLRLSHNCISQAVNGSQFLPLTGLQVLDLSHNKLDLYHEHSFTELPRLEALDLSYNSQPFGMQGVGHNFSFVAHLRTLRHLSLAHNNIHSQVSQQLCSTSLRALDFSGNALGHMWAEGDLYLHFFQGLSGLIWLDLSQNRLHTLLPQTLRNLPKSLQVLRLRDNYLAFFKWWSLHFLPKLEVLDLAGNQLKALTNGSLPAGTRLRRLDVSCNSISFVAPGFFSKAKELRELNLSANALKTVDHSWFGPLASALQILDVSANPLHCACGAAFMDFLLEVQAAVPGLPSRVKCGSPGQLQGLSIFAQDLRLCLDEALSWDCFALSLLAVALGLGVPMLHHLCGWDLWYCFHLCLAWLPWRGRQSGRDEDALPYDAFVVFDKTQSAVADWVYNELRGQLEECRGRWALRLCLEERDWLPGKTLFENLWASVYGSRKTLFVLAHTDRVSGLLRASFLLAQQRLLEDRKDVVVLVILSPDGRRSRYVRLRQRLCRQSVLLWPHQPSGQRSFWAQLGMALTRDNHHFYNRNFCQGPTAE
# Summary of the method: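 Primary human B cells (CD19-isolated from donor buffy coats), ~300,000 per well, treated with compound (about 0.01–10 μM, some 0.001–30 μM) then 1 μM CpG oligonucleotide 1018 ISS. After 48 hours at 37° C, supernatant IL-6 measured by ELISA; IC50 from concentration-response of TLR9-dependent activity.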
# [1] = TNF-alpha readout, read-out: Human TLR8 IC50 TNF-a
# [2] = IL-1 beta readout, read-out: Human TLR8 IC50 IL-1b
IC50 (human TLR8; [1]),IC50 (human TLR9),IC50 (human TLR8; [2]),inhibits TLR9-dependent responses (in words) (human TLR9),inhibits TLR8-dependent responses (in words) (human TLR8; summary statement of the description),SMILES
≥ 20 µM,0.793 µM,–,–,–,"Cc1ccc(-n2nc3c(N4CCC(C(=O)NCCCN(C)C)CC4)nnc(I)c3c2C)cc1 [compound 41, N-(3-(dimethylamino)propyl)-1-(4-iodo-3-methyl-2-(p-tolyl)-2H-pyrazolo[3,4-d]pyridazin-7-yl)piperidine-4-carboxamide]"
> 10 µM,0.36 µM,> 10 µM,–,–,"Cc1ccc(-n2nc3c(N4CCC(C(=O)NCC(C)(C)CN)CC4)nnc(C)c3c2C)cc1 [Compound No. 7, N-(3-amino-2,2-dimethylpropyl)-1-(3,4-dimethyl-2-(p-tolyl)-2H-pyrazolo[3,4-d]pyridazin-7-yl)piperidine-4-carboxamide]"
5.12 µM,0.15 µM,–,–,–,"Cc1ccc(-n2nc3c(N4CCC(C(=O)N5CCC(CN6CCOCC6)C5)CC4)nnc(C)c3c2C)cc1 (centres unmarked) [compound 70, (1-(3,4-dimethyl-2-(p-tolyl)-2H-pyrazolo[3,4-d]pyridazin-7-yl)piperidin-4-yl)(3-(morpholinomethyl)pyrrolidin-1 yl)methanone]"
≥ 20 µM,2.23 µM,–,–,–,"Cc1ccc(-c2nc3c(N4CCC(C(=O)NCCCN(C)C)CC4)cccc3n2C)cc1 [Compound No. 53, N-(3-(dimethylamino)propyl)-1-(1-methyl-2-(p-tolyl)-1H-benzo[d]imidazol-4-yl)piperidine-4-carboxamide]"
> 10 µM,0.308 µM,> 10 µM,–,–,"Cc1ccc(-n2nc3c(N4CCC(C(=O)NCCNC(C)C)CC4)nnc(C)c3c2C)cc1 [compound 8, 1-(3,4-dimethyl-2-(p-tolyl)-2H-pyrazolo[3,4-d]pyridazin-7-yl)-N-(2-(isopropylamino)ethyl)piperidine-4-carboxamide]"
≥ 20 µM,5.58 µM,–,–,–,"Cc1ccc(-n2nc3c(N4CCC(C(=O)NCCN(C)C)CC4)nnc(C)c3c2C(F)(F)F)cc1 [compound 63, N-(2-(dimethylamino)ethyl)-1-(4-methyl-2-(p-tolyl)-3-(trifluoromethyl)-2H-pyrazolo[3,4-d]pyridazin-7-yl)piperidine-4-carboxamide]"
> 10 µM,0.004 µM,> 10 µM,inhibit,–,"Cc1ccc(-n2nc3c(N4CCC(C(=O)NCCN(C)C)CC4)nnc(C)c3c2C)cc1 [Compound No. 21x, 1-(3,4-dimethyl-2-(p-tolyl)-2H-pyrazolo[3,4-d]pyridazin-7-yl)-N-(2-(dimethylamino)ethyl)piperidine-4-carboxamide]"
> 10 µM,> 10 µM,> 10 µM,–,–,Cc1ccc(-n2nc3c(N4CCC(C(=O)NCCCN5CCc6ccccc65)CC4)nnc(C)c3c2C)cc1 [2-4]
7.68 µM,1.15 µM,–,–,–,"Cc1ccc(-n2nc3c(N4CCC(C(=O)NCCCN(C)C)CC4)nnc(Cl)c3c2C)cc1 [compound 36, 1-(4-chloro-3-methyl-2-(p-tolyl)-2H-pyrazolo[3,4-d]pyridazin-7-yl)-N-(3-(dimethylamino)propyl)piperidine-4-carboxamide]"
4.6 µM,0.408 µM,–,–,–,"Cc1ccc(-n2nc3c(N4CCC(C(=O)NCCCN5CCCC5)CC4)nnc(C)c3c2C)cc1 [15x, 1-(3,4-dimethyl-2-(p-tolyl)-2H-pyrazolo[3,4-d]pyridazin-7-yl)-N-(3-(pyrrolidin-1-yl)propyl)piperidine-4-carboxamide]"
1.85 µM,0.01 µM,–,–,–,"Cc1ccc(-n2nc3c(N4CCC(C(=O)N5CCC(N6CCC6)CC5)CC4)nnc(C)c3c2C)cc1 [compound 65, (4-(azetidin-1-yl)piperidin-1-yl)(1-(3,4-dimethyl-2-(p-tolyl)-2H-pyrazolo[3,4-d]pyridazin-7-yl)piperidin-4-yl)methanone]"
0.77 µM,0.006 µM,–,–,–,"CCN(CC)C1CCN(C(=O)C2CCN(c3nncc4cn(-c5ccc(C)cc5)nc34)CC2)CC1 [compound 59, (4-(diethylamino)piperidin-1-yl)(1-(2-(p-tolyl)-2H-pyrazolo[3,4-d]pyridazin-7-yl)piperidin-4-yl)methanone]"
0.29 µM,0.004 µM,0.74 µM,inhibit,inhibit,"COc1ccc(-n2nc3c(N4CCCC(C(=O)NCCN(C)C)C4)nnc(C)c3c2C)cc1 (centres unmarked) [54x, N-(2-(dimethylamino)ethyl)-1-(2-(4-methoxyphenyl)-3,4-dimethyl-2H-pyrazolo[3,4-d]pyridazin-7-yl)piperidine-3-carboxamide]"
2.62 µM,0.027 µM,–,–,–,"Cc1ccc(-n2cc3cnnc(N4CCCC(C(=O)NCCN(C)C)C4)c3n2)cc1 (centres unmarked) [compound 47, N-(2-(dimethylamino)ethyl)-1-(2-(p-tolyl)-2H-pyrazolo[3,4-d]pyridazin-7-yl)piperidine-3-carboxamide]"
≥ 20 µM,4.82 µM,–,–,–,"Cc1ccc(-n2nc3c(N4CCCC(C(=O)NCCNc5ccccc5)C4)nnc(C)c3c2C)cc1 (centres unmarked) [compound 58, 1-(3,4-dimethyl-2-(p-tolyl)-2H-pyrazolo[3,4-d]pyridazin-7-yl)-N-(2-(phenylamino)ethyl)piperidine-3-carboxamide]"
≥ 20 µM,0.04 µM,–,–,–,"Cc1ccc(-n2nc3c(N4CCC(C(=O)NCCCCCCN(C)C)CC4)nnc(C)c3c2C)cc1 [compound 38, 1-(3,4-dimethyl-2-(p-tolyl)-2H-pyrazolo[3,4-d]pyridazin-7-yl)-N-(6-(dimethylamino)hexyl)piperidine-4-carboxamide]"
> 10 µM,0.032 µM,> 10 µM,inhibit,–,"Cc1nnc(N2CCC(C(=O)NCCN3CCCCC3C)CC2)c2nn(-c3ccccc3)c(C)c12 (centres unmarked) [24x, 1-(3,4-dimethyl-2-phenyl-2H-pyrazolo[3,4-d]pyridazin-7-yl)-N-(2-(2-methylpiperidin-1-yl)ethyl)piperidine-4-carboxamide]"
0.9 µM,0.013 µM,0.66 µM,–,–,"CCCN1CCN(C(=O)C2CCN(c3nnc(C)c4c(C)n(-c5ccccc5)nc34)CC2)CC1 [64x, (1-(3,4-dimethyl-2-phenyl-2H-pyrazolo[3,4-d]pyridazin-7-yl)piperidin-4-yl)(4-propylpiperazin-1-yl)methanone]"
> 10 µM,> 10 µM,> 10 µM,–,–,Cc1ccc(-n2nc3c(N4CCC(C(=O)NCCCc5ccccc5)CC4)nnc(C)c3c2C)cc1 [2-6]
